Where two headings read alike, the source gives them in different places.
Legend:
[1] = test system: influenza A virus (A/PR/8/34); test: MDCK cytopathic effect (CPE) cell protection assay, ATP detection; assay type: cell-based
[2] = test system: influenza A virus (A/PR/8/34); test: microbe, parasite or virus in culture; assay type: cell-based
influenza virus = test: Influenza therapeutic mouse model (in vivo efficacy); set-up: species or system Balb/c mice; conditions: dosing @ 48 hours post infection, 30 mg/kg BID × 10 days; for Percent Survival / Percent Weight Loss (Day 8): Balb/c mice; for Percent Survival: scored 21 days; for Percent Weight Loss (Day 8): post challenge day 8; for WBP (Penh; Day 6): whole body plethysmography, enhanced pause
[3] = Influenza A virus, PR/8, MDCK, 72 h, Table 1, MDCK cells, A/PR/8/34, 72 hours, 50% cell protection, mean all, class symbol, read-out: MDCK IC50
[4] = Influenza A virus, PR/8, MDCK, exemplary data, MDCK cell protection, read-out: IC50
[5] = Influenza A virus, PR/8, Table 1, mean all, class symbol, read-out: bDNA EC99
[6] = Influenza A virus, PR/8, Table 1, viral RNA 50% of control wells, mean all, class symbol, read-out: bDNA EC50
[7] = Influenza A virus, PR/8, exemplary data, bDNA, read-out: EC50

| Compound | IC50 [1, 3] [µM] | EC99 [2, 5] [µM] | EC50 [2, 6] [µM] | also measured |
| --- | --- | --- | --- | --- |
| CC(C)(C)[C@@H](CC(=O)O)Nc1nc(-c2c[nH]c3ncc(F)cc23)ncc1F [Compound 2, (R)-3-((5-fluoro-2-(5-fluoro-1H-pyrrolo[2,3-b]pyridin-3-yl)pyrimidin-4-yl)amino)-4,4-dimethylpentanoic acid] | < 0.3 | < 0.3 | < 0.3 | IC50 [1, 4]: 0.004 µM; EC50 [2, 7]: 0.009 µM; EC99 ([2]; exemplary data, bDNA): 0.0063 µM; Percent Survival (influenza virus): 100%; Percent Weight Loss (Day 8) (influenza virus): 14%; WBP (Penh; Day 6) (influenza virus): 2.03 |
| CC(C)(C)[C@@H](CC(=O)O)Nc1nc(-c2c[nH]c3ncc(Cl)cc23)ncc1F [Compound 1, (R)-3-(2-(5-Chloro-1H-pyrrolo[2,3-b]pyridin-3-yl)-5-fluoropyrimidin-4-ylamino)-4,4-dimethylpentanoic acid] | < 0.3 | < 0.3 | < 0.3 | IC50 [1, 4]: 0.006 µM; EC50 [2, 7]: 0.009 µM; EC99 ([2]; exemplary data, bDNA): 0.0094 µM; Percent Survival (influenza virus): 100%; Percent Weight Loss (Day 8) (influenza virus): 26.6%; WBP (Penh; Day 6) (influenza virus): 1.88 |
| CCC(C)(C)C(CC(=O)O)Nc1nc(-c2c[nH]c3ncc(F)cc23)c(C#N)cc1F (centres unmarked) [Compound 18, 3-[[5-cyano-3-fluoro-6-(5-fluoro-1H-pyrrolo[2,3-b]pyridin-3-yl)-2-pyridyl]amino]-4,4-dimethyl-hexanoic acid] | < 0.3 | < 0.3 | < 0.3 |  |
| CC1([C@H](CC(=O)O)Nc2nc(-c3c[nH]c4ncc(F)cc34)ncc2F)CCCC1 [Compound 15] | 0.3 to 3.3 | > 3.3 | 0.3 to 3.3 |  |
| CC(C)(C)C(Nc1nc(-c2c[nH]c3ncc(F)cc23)ncc1F)C1CC1C(=O)O (centres unmarked) [Compound 50, 2-(1-((5-fluoro-2-(5-fluoro-1H-pyrrolo[2,3-b]pyridin-3-yl)pyrimidin-4-yl)amino)-2,2-dimethylpropyl)cyclopropanecarboxylic acid] | < 0.3 | 0.3 to 3.3 | < 0.3 |  |
| CNC(=O)[C@H](C)Nc1nc(-c2c[nH]c3ncc(Cl)cc23)ncc1F [Compound C3, reference compound] |  |  |  | IC50 ([1]; Influenza A virus, PR/8, MDCK, Table 2, class symbol in brackets, read-out: MDCK cell IC50 (uM), class): > 3.3 µM; IC50 ([1]; Influenza A virus, PR/8, MDCK, Table 2, comparison compounds of WO2005/095400, mean value, read-out: MDCK cell IC50): > 20 µM; EC50 ([2]; Influenza A virus, PR/8, Table 2, class symbol in brackets, read-out: bDNA EC50 (uM), class): > 3.3 µM; EC50 ([2]; Influenza A virus, PR/8, Table 2, comparison compounds of WO2005/095400, mean value, read-out: bDNA EC50): 3.38 µM; bDNA EC99 (uM), class ([2]; Table 2, class symbol in brackets): C (EC99 (mean all)>3.3 μM); bDNA EC99 ([2]; Table 2, comparison compounds of WO2005/095400, mean value): 9.37 µM |
| CC(C)(C)[C@@H](CC(O)C(F)(F)F)Nc1nc(-c2c[nH]c3ncc(F)cc23)ncc1F (stereo partly drawn) [Compound 66, (4R)-1,1,1-trifluoro-4-((5-fluoro-2-(5-fluoro-1H-pyrrolo[2,3-b]pyridin-3-yl)pyrimidin-4-yl)amino)-5,5-dimethylhexan-2-ol] | < 0.3 | 0.3 to 3.3 | < 0.3 |  |
| O=C(O)CC(Nc1nc(-c2c[nH]c3ncc(F)cc23)ncc1F)C1(C(F)(F)F)CCCC1 (racemic) [Compound 75, (+/−)-3-(5-fluoro-2-(5-fluoro-1H-pyrrolo[2,3-b]pyridin-3-yl)pyrimidin-4-ylamino)-3-(1-(trifluoromethyl)cyclopentyl)propanoic acid] | > 3.3 | > 3.3 | 0.3 to 3.3 |  |
| CC(C)(C)C(Cc1nc(=O)o[nH]1)Nc1nc(-c2c[nH]c3ncc(F)cc23)ncc1F (racemic) [Compound 65, (+/−)-3-(2-((5-fluoro-2-(5-fluoro-1H-pyrrolo[2,3-b]pyridin-3-yl)pyrimidin-4-yl)amino)-3,3-dimethylbutyl)-1,2,4-oxadiazol-5(2H)-one] | < 0.3 | 0.3 to 3.3 | < 0.3 |  |
| CC(C)(C)[C@@H](CC(O)C(F)(F)F)Nc1nc(-c2c[nH]c3ncc(F)cc23)ncc1F (stereo partly drawn) [Compound 67, (4R)-1,1,1-trifluoro-4-((5-fluoro-2-(5-fluoro-1H-pyrrolo[2,3-b]pyridin-3-yl)pyrimidin-4-yl)amino)-5,5-dimethylhexan-2-ol] |  |  |  | IC50 ([1]; Table 1, MDCK cells, A/PR/8/34, 72 hours, 50% cell protection, mean all, class symbol, read-out: MDCK IC50): < 0.3 µM; EC50 ([2]; Table 1, viral RNA 50% of control wells, mean all, class symbol, read-out: bDNA EC50): < 0.3 µM |
| O=C(O)CC(Nc1nc(-c2c[nH]c3ncc(F)cc23)ncc1F)C1CCC1 (racemic) [Compound 44, (+/−)-3-cyclobutyl-3-((5-fluoro-2-(5-fluoro-1H-pyrrolo[2,3-b]pyridin-3-yl)pyrimidin-4-yl)amino)propanoic acid] | < 0.3 | 0.3 to 3.3 | 0.3 to 3.3 |  |
| CC(C)(C)[C@@H](CS(=O)(=O)CC(=O)O)Nc1nc(-c2c[nH]c3ncc(Cl)cc23)ncc1F [Compound 61, (S)-2-(2-(2-(5-chloro-1H-pyrrolo[2,3-b]pyridin-3-yl)-5-fluoropyrimidin-4-ylamino)-3,3-dimethylbutylsulfonyl)ethanoic acid] | < 0.3 | 0.3 to 3.3 | < 0.3 |  |
| O=C(O)CC(Nc1nc(-c2c[nH]c3ncc(F)cc23)ncc1F)C1(C(F)(F)F)CC1 (racemic) [Compound 93, (+/−)-3-((5-Fluoro-2-(5-fluoro-1H-pyrrolo[2,3-b]pyridin-3-yl)pyrimidin-4-yl)amino)-3-(1-(trifluoromethyl)cyclopropyl)propanoic acid] | 0.3 to 3.3 | > 3.3 | 0.3 to 3.3 |  |
